Measured values as given in ChEMBL document CHEMBL4507296 (2021).

What was measured:
[1] = molecular target: Fibroblast growth factor receptor 4 (Homo sapiens) (UniProt P22455); details: Compound concentration 1000.0 nM
[2] = molecular target: Megakaryocyte-associated tyrosine-protein kinase (Homo sapiens) (UniProt P42679); details: Compound concentration 1000.0 nM
[3] = molecular target: Serine/threonine-protein kinase N2 (Homo sapiens) (UniProt Q16513); details: Compound concentration 1000.0 nM
[4] = molecular target: Gastrin/cholecystokinin type B receptor (Homo sapiens) (UniProt P32239); assay: CCK2 (human) CEREP ligand profiling; details: Compound concentration 10.0 uM
[5] = molecular target: Cyclin-dependent kinase 4 (Homo sapiens) (UniProt P11802); details: Compound concentration 1000.0 nM
[6] = molecular target: Inhibitor of nuclear factor kappa-B kinase subunit beta (Homo sapiens) (UniProt O14920); details: Compound concentration 1000.0 nM
[7] = molecular target: MAP kinase-activated protein kinase 5 (Homo sapiens) (UniProt Q8IW41); details: Compound concentration 1000.0 nM
MAP kinase-activated protein kinase 5 (Homo sapiens), sequence (Q8IW41 whole entry): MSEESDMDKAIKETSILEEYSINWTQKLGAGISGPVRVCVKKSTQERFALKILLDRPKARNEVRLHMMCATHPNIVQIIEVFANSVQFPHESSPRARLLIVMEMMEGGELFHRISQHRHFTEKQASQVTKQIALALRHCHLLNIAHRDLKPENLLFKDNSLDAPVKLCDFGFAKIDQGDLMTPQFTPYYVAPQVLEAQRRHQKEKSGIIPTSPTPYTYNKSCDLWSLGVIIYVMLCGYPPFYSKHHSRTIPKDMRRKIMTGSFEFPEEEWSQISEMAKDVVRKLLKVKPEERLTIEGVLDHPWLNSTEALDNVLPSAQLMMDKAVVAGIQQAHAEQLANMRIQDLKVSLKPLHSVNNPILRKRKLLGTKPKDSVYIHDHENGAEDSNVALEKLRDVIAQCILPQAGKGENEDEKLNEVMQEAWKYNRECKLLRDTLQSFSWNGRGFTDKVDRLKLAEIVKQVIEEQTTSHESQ

[8] = molecular target: Serine/threonine-protein kinase PAK 4 (Homo sapiens) (UniProt O96013); details: Compound concentration 1000.0 nM
[9] = molecular target: Serine/threonine-protein kinase 24 (Homo sapiens) (UniProt Q9Y6E0); details: Compound concentration 1000.0 nM
[10] = molecular target: Ephrin type-B receptor 6 (Homo sapiens) (UniProt O15197); details: Compound concentration 1000.0 nM
[11] = molecular target: Serine/threonine-protein kinase BRSK2 (Homo sapiens) (UniProt Q8IWQ3); details: Compound concentration 1000.0 nM
[12] = molecular target: Calcium/calmodulin-dependent protein kinase type II subunit delta (Homo sapiens) (UniProt Q13557); details: Compound concentration 1000.0 nM
[13] = tested on: Epidermal growth factor receptor (Homo sapiens), P00533 [UNDEFINED MUTATION]; details: Compound concentration 1000.0 nM
[14] = tested on: Mast/stem cell growth factor receptor Kit (Homo sapiens), P10721 [L576P]; details: Compound concentration 1000.0 nM
[15] = molecular target: Myotonin-protein kinase (Homo sapiens) (UniProt Q09013); details: Compound concentration 1000.0 nM
[16] = molecular target: D(4) dopamine receptor (Homo sapiens) (UniProt P21917); details: Compound concentration 10.0 uM
D(4) dopamine receptor (Homo sapiens), sequence (P21917 whole entry): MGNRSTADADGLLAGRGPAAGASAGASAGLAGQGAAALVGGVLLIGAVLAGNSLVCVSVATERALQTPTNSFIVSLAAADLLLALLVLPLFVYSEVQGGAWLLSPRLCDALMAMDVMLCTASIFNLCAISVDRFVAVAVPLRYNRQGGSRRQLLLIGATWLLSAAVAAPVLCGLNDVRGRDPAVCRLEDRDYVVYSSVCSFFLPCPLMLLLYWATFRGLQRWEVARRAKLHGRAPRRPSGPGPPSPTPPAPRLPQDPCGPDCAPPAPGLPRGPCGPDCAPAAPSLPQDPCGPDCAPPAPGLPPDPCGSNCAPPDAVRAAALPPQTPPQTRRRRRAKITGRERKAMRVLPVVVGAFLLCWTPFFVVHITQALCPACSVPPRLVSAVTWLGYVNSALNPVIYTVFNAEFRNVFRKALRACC

[17] = molecular target: Serine/threonine-protein kinase TAO1 (Homo sapiens) (UniProt Q7L7X3); details: Compound concentration 1000.0 nM
[18] = molecular target: SNF-related serine/threonine-protein kinase (Homo sapiens) (UniProt Q9NRH2); details: Compound concentration 1000.0 nM
[19] = molecular target: 5-hydroxytryptamine receptor 7 (Homo sapiens) (UniProt P34969); details: Compound concentration 10.0 uM
[20] = molecular target: Focal adhesion kinase 1 (Homo sapiens) (UniProt Q05397); details: Compound concentration 1000.0 nM
[21] = molecular target: Serine/threonine-protein kinase PknB (Mycobacterium tuberculosis) (UniProt P9WI81); details: Compound concentration 1000.0 nM
Serine/threonine-protein kinase PknB (Mycobacterium tuberculosis), sequence (P9WI81 whole entry): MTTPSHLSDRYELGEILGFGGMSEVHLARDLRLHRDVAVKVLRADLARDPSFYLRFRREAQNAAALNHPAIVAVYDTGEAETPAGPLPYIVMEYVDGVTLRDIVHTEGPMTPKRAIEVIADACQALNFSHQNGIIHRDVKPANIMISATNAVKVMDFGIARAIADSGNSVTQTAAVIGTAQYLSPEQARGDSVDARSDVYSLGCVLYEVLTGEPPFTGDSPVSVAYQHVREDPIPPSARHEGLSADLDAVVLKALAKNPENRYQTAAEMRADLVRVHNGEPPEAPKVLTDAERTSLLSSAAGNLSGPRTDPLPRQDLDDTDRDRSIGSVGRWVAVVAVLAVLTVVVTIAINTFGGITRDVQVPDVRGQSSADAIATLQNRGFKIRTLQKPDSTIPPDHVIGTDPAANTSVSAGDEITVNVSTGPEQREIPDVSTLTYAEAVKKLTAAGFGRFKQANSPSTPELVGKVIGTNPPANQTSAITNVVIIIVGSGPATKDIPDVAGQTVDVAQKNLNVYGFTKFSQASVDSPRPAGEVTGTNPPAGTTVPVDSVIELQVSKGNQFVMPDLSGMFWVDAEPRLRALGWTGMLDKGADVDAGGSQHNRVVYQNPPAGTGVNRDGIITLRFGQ

[22] = molecular target: High affinity nerve growth factor receptor (Homo sapiens) (UniProt P04629); details: Compound concentration 1000.0 nM
[23] = molecular target: Serine/threonine-protein kinase VRK2 (Homo sapiens) (UniProt Q86Y07); details: Compound concentration 1000.0 nM
[24] = molecular target: Mitogen-activated protein kinase kinase kinase 5 (Homo sapiens) (UniProt Q99683); details: Compound concentration 1000.0 nM
Mitogen-activated protein kinase kinase kinase 5 (Homo sapiens), sequence (Q99683 whole entry): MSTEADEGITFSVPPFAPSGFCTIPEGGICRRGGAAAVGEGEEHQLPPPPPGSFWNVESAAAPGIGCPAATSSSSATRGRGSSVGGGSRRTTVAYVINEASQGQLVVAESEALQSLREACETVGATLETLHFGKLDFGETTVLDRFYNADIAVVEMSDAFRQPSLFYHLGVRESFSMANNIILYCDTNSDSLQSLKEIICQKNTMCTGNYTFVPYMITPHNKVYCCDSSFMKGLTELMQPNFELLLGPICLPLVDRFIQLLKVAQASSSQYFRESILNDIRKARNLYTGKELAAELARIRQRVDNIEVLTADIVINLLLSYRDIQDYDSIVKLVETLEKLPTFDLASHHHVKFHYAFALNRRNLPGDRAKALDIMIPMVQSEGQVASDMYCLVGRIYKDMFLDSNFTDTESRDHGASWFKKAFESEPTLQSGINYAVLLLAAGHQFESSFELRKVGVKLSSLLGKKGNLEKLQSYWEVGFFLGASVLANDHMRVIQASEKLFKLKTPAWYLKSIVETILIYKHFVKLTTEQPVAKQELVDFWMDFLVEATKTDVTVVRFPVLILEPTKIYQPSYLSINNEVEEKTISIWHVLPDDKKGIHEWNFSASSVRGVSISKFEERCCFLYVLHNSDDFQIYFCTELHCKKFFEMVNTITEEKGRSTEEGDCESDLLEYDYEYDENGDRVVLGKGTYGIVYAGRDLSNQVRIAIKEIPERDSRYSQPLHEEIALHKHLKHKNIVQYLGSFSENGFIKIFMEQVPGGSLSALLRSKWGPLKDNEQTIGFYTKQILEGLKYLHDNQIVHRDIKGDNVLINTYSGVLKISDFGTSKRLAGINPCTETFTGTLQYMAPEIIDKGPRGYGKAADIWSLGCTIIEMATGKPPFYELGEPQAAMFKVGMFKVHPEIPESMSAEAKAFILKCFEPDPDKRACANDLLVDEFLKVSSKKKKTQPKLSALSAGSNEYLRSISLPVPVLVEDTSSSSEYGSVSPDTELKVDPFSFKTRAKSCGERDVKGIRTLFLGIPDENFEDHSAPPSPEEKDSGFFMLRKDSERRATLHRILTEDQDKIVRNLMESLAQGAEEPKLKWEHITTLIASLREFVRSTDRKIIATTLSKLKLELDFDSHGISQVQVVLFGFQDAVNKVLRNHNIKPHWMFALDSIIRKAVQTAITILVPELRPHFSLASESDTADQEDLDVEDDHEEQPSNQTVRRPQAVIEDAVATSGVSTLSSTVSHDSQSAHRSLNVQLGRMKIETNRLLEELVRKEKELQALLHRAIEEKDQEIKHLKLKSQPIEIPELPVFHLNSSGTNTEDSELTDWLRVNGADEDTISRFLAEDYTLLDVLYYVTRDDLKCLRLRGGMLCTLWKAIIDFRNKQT

[25] = molecular target: Insulin receptor-related protein (Homo sapiens) (UniProt P14616); details: Compound concentration 1000.0 nM
[26] = molecular target: Proto-oncogene tyrosine-protein kinase ROS (Homo sapiens) (UniProt P08922); details: Compound concentration 1000.0 nM
[27] = molecular target: Mitogen-activated protein kinase kinase kinase 11 (Homo sapiens) (UniProt Q16584); details: Compound concentration 1000.0 nM
[28] = molecular target: Serine/threonine-protein kinase MAK (Homo sapiens) (UniProt P20794); details: Compound concentration 1000.0 nM
[29] = molecular target: Casein kinase II subunit alpha' (Homo sapiens) (UniProt P19784); details: Compound concentration 1000.0 nM
[30] = tested on: Phosphatidylinositol 4,5-bisphosphate 3-kinase catalytic subunit alpha isoform (Homo sapiens), P42336 [M1043I]; details: Compound concentration 1000.0 nM
[31] = tested on: Tyrosine-protein kinase ABL1 (Homo sapiens), P00519 [F317L]; details: Compound concentration 1000.0 nM
Tyrosine-protein kinase ABL1 (Homo sapiens), P00519 [F317L], sequence (P00519 whole entry F317L): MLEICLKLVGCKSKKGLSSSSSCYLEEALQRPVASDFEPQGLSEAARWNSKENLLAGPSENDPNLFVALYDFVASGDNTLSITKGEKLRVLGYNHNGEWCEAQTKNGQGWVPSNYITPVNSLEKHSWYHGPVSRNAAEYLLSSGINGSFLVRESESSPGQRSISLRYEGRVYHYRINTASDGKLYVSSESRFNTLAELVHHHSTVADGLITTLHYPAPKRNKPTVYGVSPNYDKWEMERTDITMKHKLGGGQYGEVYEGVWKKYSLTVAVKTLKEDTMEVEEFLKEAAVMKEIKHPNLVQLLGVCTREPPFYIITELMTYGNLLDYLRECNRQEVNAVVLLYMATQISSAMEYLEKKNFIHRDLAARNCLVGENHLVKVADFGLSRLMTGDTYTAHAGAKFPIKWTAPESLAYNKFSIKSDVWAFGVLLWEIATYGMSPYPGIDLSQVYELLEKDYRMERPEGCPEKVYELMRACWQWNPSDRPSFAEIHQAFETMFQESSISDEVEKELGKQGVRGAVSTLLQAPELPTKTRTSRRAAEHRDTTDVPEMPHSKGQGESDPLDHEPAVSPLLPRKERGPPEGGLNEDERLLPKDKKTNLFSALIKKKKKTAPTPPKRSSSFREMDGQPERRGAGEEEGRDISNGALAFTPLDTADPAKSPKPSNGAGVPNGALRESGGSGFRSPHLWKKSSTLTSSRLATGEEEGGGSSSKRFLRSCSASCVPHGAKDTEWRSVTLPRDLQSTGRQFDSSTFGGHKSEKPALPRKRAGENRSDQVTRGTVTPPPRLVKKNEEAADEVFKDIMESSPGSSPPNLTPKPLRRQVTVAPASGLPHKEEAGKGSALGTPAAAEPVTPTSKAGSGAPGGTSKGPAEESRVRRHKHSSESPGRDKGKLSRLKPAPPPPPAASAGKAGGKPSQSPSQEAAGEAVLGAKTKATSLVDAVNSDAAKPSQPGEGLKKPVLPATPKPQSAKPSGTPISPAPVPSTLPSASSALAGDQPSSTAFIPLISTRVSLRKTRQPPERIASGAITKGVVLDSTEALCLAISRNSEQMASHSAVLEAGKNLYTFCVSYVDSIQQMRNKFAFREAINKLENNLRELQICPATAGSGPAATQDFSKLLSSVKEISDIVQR

[32] = molecular target: Protein kinase C epsilon type (Homo sapiens) (UniProt Q02156); details: Compound concentration 1000.0 nM
[33] = molecular target: Serine/threonine-protein kinase WNK3 (Homo sapiens) (UniProt Q9BYP7); details: Compound concentration 1000.0 nM
[34] = molecular target: Platelet-derived growth factor receptor alpha (Homo sapiens) (UniProt P16234); details: Compound concentration 1000.0 nM
[35] = tested on: Tyrosine-protein kinase ABL1 (Homo sapiens), P00519 [F317L]; details: Compound concentration 1000.0 nM; remark: listed apart in the source

Fibroblast growth factor receptor 4 (Homo sapiens), sequence (P22455 22-802 limits assumed): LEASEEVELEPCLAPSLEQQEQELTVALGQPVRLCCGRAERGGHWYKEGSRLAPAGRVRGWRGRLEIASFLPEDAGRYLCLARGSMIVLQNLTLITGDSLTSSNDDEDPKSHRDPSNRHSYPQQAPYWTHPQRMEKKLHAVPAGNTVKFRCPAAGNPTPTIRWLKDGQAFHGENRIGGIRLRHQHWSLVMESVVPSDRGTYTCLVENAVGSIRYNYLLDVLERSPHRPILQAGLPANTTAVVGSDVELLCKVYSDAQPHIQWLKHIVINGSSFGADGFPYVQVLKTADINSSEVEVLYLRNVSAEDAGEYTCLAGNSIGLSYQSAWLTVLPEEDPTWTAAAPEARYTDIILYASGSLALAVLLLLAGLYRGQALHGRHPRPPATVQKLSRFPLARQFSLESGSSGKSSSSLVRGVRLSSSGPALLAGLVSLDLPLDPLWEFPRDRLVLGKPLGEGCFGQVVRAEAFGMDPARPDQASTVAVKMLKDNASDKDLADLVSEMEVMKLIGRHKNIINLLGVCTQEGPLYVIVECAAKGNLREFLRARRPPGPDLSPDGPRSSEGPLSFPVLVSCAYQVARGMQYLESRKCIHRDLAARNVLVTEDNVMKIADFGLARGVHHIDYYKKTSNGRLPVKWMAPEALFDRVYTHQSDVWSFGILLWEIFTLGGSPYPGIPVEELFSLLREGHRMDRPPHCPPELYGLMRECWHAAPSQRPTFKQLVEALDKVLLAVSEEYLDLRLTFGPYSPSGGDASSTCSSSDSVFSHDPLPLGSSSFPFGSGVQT

C[C@H](c1ccc(F)cc1)N(Cc1cccc(C(=O)O)c1)C(=O)c1cnc2ccccc2c1 [PF-05105679]
inactive: residual activity [1] 91% | residual activity [2] 79% | residual activity [3] 86% | inhibition [4] 35% | residual activity [5] 100% | residual activity [6] 100% | residual activity [7] 96% | residual activity [8] 100% | residual activity [9] 100% | residual activity [10] 88% | residual activity [11] 100% | residual activity [12] 100% | residual activity [13] 100% | residual activity [14] 94% | residual activity [15] 88% | inhibition [16] 10.1% | residual activity [17] 100% | residual activity [18] 96% | inhibition [19] -2.7% | residual activity [20] 93% | residual activity [21] 94% | residual activity [22] 100% | residual activity [23] 100% | residual activity [24] 100% | residual activity [25] 84% | residual activity [26] 100% | residual activity [27] 100% | residual activity [28] 100% | residual activity [29] 86% | residual activity [30] 100% | residual activity [31] 99% | residual activity [32] 95% | residual activity [33] 87% | residual activity [34] 100% | residual activity [35] 91%
